Publication PMC10486429, “Investigations Using Albumin Binders to Modify the Tissue Distribution Profile of Radiopharmaceuticals Exemplified with Folate Radioconjugates” (Cancers, 2023)
Where two headings read alike, the source gives them in different places.

Columns and labels:
[1] = n-octanol/PBS pH 7.4; cited from earlier work
[2] = Radiolytic stability of 177Lu-DOTA-ALBs in PBS (HPLC); type: physicochemical; conditions: room temperature, 100 MBq/500 µL PBS
Method: The radiolabeling of DOTA-ALBs was carried out under standard labeling conditions at pH 4.5. The ligands (10−100 μM) were mixed with lutetium-177 (no-carrier added [^177Lu]LuCl3; in 0.04 M HCl; ITM GmbH Medical Isotopes, Munich, Germany) to reach molar activities of 25–50 MBq/nmol (Supplementary Materials Section S2). An analytical HPLC system equipped with a C18 column and a radioactivity detector was used for quality control of the radiolabeled DOTA-ALBs (Supplementary Materials Section S2). The ^177Lu-DOTA-ALBs were used for preclinical investigations without separation of the labeled from the unlabeled fraction. The radiolytic stability of the ^177Lu-DOTA-ALBs (50 MBq/nmol) diluted in phosphate-buffered saline (PBS; 100 MBq/500 μL) was assessed in vitro in the absence and presence of L-ascorbic acid (Supplementary Materials Section S3). The n-octanol/PBS distribution coefficients (logD values) were determined using a shake-flask method according to an established protocol (Supplementary Materials Section S4). The logD values were analyzed using a one-way ANOVA with Tukey’s multiple comparisons post-test using GraphPad Prism software (version 8). A p-value of <0.05 was considered a statistically significant difference. […]
S2. Radiolabeling of DOTA-ALBs with Lutetium-177
Purpose: The DOTA-ALBs were labeled with lutetium-177 for subsequent in vitro and […]
Methods: The DOTA-ALBs were dissolved in Milli-Q water at a concentration of 1 mM. Radiolabeling was performed by incubation of the respective DOTA-ALBs with lutetium-177 (no-carrier-added, in 0.04 M HCl; ITM Medical Isotopes GmbH, Munich, Germany) at 95 °C for 10 min in a 1:5 (v/v) mixture of sodium acetate (0.5 M) and HCl (0.05 M) at pH ~4.5 as previously reported. Quality control was performed by reversed-phase HPLC using an aliquot of the radiolabeled DOTA-ALBs (⁓1.5 MBq) diluted in Milli-Q water containing penta-sodium diethylenetriamine pentaacetic acid (Na5-DTPA; 50 µM). The HPLC system (Merck Hitachi LaChrom HPLC) was equipped with a D-7000 interface, a radioactivity detector (LB 508, Berthold Technologies GmbH), a L-6200A pump and a reversed-phase C18 column (XterraTM, 5 µm, 4.6×150 mm, Waters, USA). A linear gradient of 0.1% TFA in Milli-Q water (95–20%) and MeCN (5–80%) over 15 min was used as a mobile phase at a 1 mL/min flow rate. […]
to 50 MBq/nmol. The 177Lu-DOTA-ALBs were used without further purification for their in vitro and in vivo evaluation.
S3. Radiolytic Stability of 177Lu-DOTA-ALBs
Purpose: The stability of each 177Lu-labeled DOTA-ALB was assessed at a high activ-ity concentration to assess potential radiolytic degradation in the absence and presence of […]
Methods: After quality control of the labeled DOTA-ALBs using HPLC (t0), the radio-labeled DOTA-ALBs (50 MBq/nmol) were diluted in PBS pH 7.4 to obtain an activity con-centration of 100 MBq/500 µL. The samples were incubated at room temperature in the absence or presence of L-ascorbic acid (3 mg). Sodium acetate solution (0.5 M, pH 8.0, 150 µL) was added to the samples containing L-ascorbic acid in order to adjust the pH value to ⁓6.5. The integrity of the radiolabeled DOTA-ALBs was assessed after a 4 h- and 24 h-incubation period using HPLC as described above (Supplementary Material, Section S2). The HPLC chromatograms were analyzed by determination of the peak area of the radio-labeled DOTA-ALBs, the released lutetium-177 as well as potential degradation products of unknown structure. The quantity of the intact product was expressed as per-centage of the sum of integrated peak areas of the entire chromatogram and set in relation to the original value determined at t0 (radiochemical purity ≥95% set as 100%).
Results: The results are reported in the main article and presented together with the retention times of the product peak in Table S2.
Table S2. Radiolytic stability of 177Lu-DOTA-ALBs after incubation in the absence or presence of L-ascorbic acid at room temperature (average of n=2 individually performed experiments). […]

[3] = design: method as in PMID 33063250; conditions: n-octanol/PBS pH 7.4; cited from earlier work
folate receptor (FR) = biological target: T1, folate receptor (FR) (Homo sapiens, UniProt P15328); design: method as in PMID 34251183; conditions: IGROV-1 cells; read-out: KD Value (95% CI); cited from earlier work
T1 construct: endogenous in cells; host or cells: IGROV-1 (human ovarian carcinoma cell line), intact cells on ice

[4] = tested on: KB tumor-bearing athymic nude mice; design: method as in earlier work; conditions: cited from earlier work

T1 sequence (P15328 25-257): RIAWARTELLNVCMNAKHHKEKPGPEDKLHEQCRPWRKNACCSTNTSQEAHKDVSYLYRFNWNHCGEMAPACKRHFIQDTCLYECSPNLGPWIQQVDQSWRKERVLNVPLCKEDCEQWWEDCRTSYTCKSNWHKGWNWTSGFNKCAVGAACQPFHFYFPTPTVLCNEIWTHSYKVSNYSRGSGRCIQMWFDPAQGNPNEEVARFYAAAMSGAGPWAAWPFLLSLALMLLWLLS

Compound: O=C(O)CN1CCN(CC(=O)O)CCN(CC(=O)NCCC(=O)N[C@@H](CCCCNC(=O)CCCc2ccc(I)cc2)C(=O)O)CCN(CC(=O)O)CC1.[177Lu] [[^177Lu]Lu-DOTA-ALB-1]
- logD value [1]: −3.15 ± 0.04
- Intact radioligand ([2]; with L-ascorbic acid, 4 h): 99%
- Intact radioligand ([2]; with L-ascorbic acid, 24 h): 96%
- Intact radioligand ([2]; without L-ascorbic acid, 4 h): 92%
- Intact radioligand ([2]; without L-ascorbic acid, 24 h): 51%

Compound: CN1c2c(nc(N)[nH]c2=O)NCC1CNc1ccc(C(=O)NC(CCC(=O)NC(CCCCNC(=O)CN2CCN(CC(=O)[O-])CCN(CC(=O)[O-])CCN(CC(=O)[O-])CC2)C(=O)NC(CCCCNC(=O)CCCc2ccc(I)cc2)C(=O)O)C(=O)O)cc1.[177Lu+3] (stereo not drawn) [[^177Lu]Lu-6S-RedFol-1]
- logD Values [3]: −3.7 ± 0.1 ^4
- Kd (folate receptor (FR)): 1.7 nM
- Blood, accumulated activity ([4]; 1 h p.i.): 19 ± 2 % IA/g
- Bone, accumulated activity ([4]; 1 h p.i.): 2.0 ± 0.2 % IA/g
- Intestines, accumulated activity ([4]; 1 h p.i.): 1.8 ± 0.4 % IA/g
- KB tumor, accumulated activity ([4]; 1 h p.i.): 14 ± 3 % IA/g
- Kidneys, accumulated activity ([4]; 1 h p.i.): 18 ± 2 % IA/g
- Liver, accumulated activity ([4]; 1 h p.i.): 2.6 ± 0.1 % IA/g
- Lung, accumulated activity ([4]; 1 h p.i.): 8.5 ± 0.6 % IA/g
- Muscle, accumulated activity ([4]; 1 h p.i.): 1.6 ± 0.2 % IA/g
- Salivary glands, accumulated activity ([4]; 1 h p.i.): 4.0 ± 0.2 % IA/g
- Spleen, accumulated activity ([4]; 1 h p.i.): 2.0 ± 0.2 % IA/g
- Stomach, accumulated activity ([4]; 1 h p.i.): 1.5 ± 0.3 % IA/g
- Tumor-to-blood ratio ([4]; 1 h p.i.): 0.73 ± 0.12
- Tumor-to-kidney ratio ([4]; 1 h p.i.): 0.75 ± 0.09
- Tumor-to-liver ratio ([4]; 1 h p.i.): 5.3 ± 1.0
- Blood, accumulated activity ([4]; 4 h p.i.): 15 ± 2 % IA/g
- Bone, accumulated activity ([4]; 4 h p.i.): 1.7 ± 0.2 % IA/g
- Intestines, accumulated activity ([4]; 4 h p.i.): 1.9 ± 0.1 % IA/g
- KB tumor, accumulated activity ([4]; 4 h p.i.): 26 ± 1 % IA/g
- Kidneys, accumulated activity ([4]; 4 h p.i.): 33 ± 2 % IA/g
- Liver, accumulated activity ([4]; 4 h p.i.): 2.3 ± 0.2 % IA/g
- Lung, accumulated activity ([4]; 4 h p.i.): 6.7 ± 0.6 % IA/g
- Muscle, accumulated activity ([4]; 4 h p.i.): 1.3 ± 0.1 % IA/g
- Salivary glands, accumulated activity ([4]; 4 h p.i.): 3.5 ± 0.4 % IA/g
- Spleen, accumulated activity ([4]; 4 h p.i.): 1.9 ± 0.3 % IA/g
- Stomach, accumulated activity ([4]; 4 h p.i.): 1.2 ± 0.2 % IA/g
- Tumor-to-blood ratio ([4]; 4 h p.i.): 1.7 ± 0.2
- Tumor-to-kidney ratio ([4]; 4 h p.i.): 0.79 ± 0.07
- Blood, accumulated activity ([4]; 24 h p.i.): 3.8 ± 0.9 % IA/g
- Bone, accumulated activity ([4]; 24 h p.i.): 0.53 ± 0.08 % IA/g
- Intestines, accumulated activity ([4]; 24 h p.i.): 0.49 ± 0.04 % IA/g
- KB tumor, accumulated activity ([4]; 24 h p.i.): 46 ± 3 % IA/g
- Kidneys, accumulated activity ([4]; 24 h p.i.): 69 ± 7 % IA/g
- Liver, accumulated activity ([4]; 24 h p.i.): 0.81 ± 0.22 % IA/g
- Lung, accumulated activity ([4]; 24 h p.i.): 2.2 ± 0.4 % IA/g
- Muscle, accumulated activity ([4]; 24 h p.i.): 0.47 ± 0.15 % IA/g
- Salivary glands, accumulated activity ([4]; 24 h p.i.): 1.4 ± 0.2 % IA/g
- Spleen, accumulated activity ([4]; 24 h p.i.): 1.1 ± 0.2 % IA/g
- Stomach, accumulated activity ([4]; 24 h p.i.): 0.51 ± 0.14 % IA/g
- Tumor-to-blood ratio ([4]; 24 h p.i.): 13 ± 3
- Tumor-to-kidney ratio ([4]; 24 h p.i.): 0.67 ± 0.08
- Tumor-to-liver ratio ([4]; 24 h p.i.): 59 ± 13
